These are literature values, as cited in patent US8834942B2, “Enhanced absorption of oregano derived oils” (priority 2010, dated 2014).

For the data set the following is noted: single emulsifier.

Regarding polyoxyethylene sorbitan monooleate, the HLB value result is “about 15”.
